According to ChEMBL document CHEMBL1201862, “PubChem BioAssay data set” (2004):
Activity calls are given as the source filed them. Cut-off read from the data, not from the text of the source, for most assays here: actives have a measured EC50 and inactives only a lower limit.

Legend:
[1] = NIH3T3 cell viability loss – ATP luminescence, mouse fibroblasts, counter-screen, dose response (AID 2010); format: functional, cell-based;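 note: cells exposed to compound for about 90 hours before reading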
[2] = fluconazole-exposed Candida albicans growth modulators – fluorescence, retest, confirmation (AID 2467); format: functional, cell-based
[3] = NIH-3T3 fibroblast cytotoxicity, dose response, cytotoxicity control, cell-based, fluorescence, Alamar Blue, secondary assay (AID 2327); format: functional;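 note: NIH-3T3 mouse fibroblasts cultured with fluconazole at 8 µg/mL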
[4] = Trypanosoma cruzi growth suppression in host cells – NIH3T3 host cells, beta-gal luminescence, confirmation (AID 2044); format: functional, cell-based;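 note: intracellular parasites grown in NIH/3T3 mouse fibroblasts as host cells; luminescent beta-galactosidase reporter signal from transgenic T. cruzi replicating inside host cells; inhibitors lower the luminescence signal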
INS1 = assay: INS-1E survival protection against cytokine death – cell-based, luminescence, retest, dose response (AID 449756); format: functional; settings: Rattus norvegicus;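 note: cell death triggered by IL-1 beta plus TNF-alpha plus IFN-gamma mixture; protective hits raise ATP signal compared with cytokine alone wells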
[5] = target: T1, Heat shock factor protein 1 (Mus musculus, UniProt P38532); assay: enhancement of HSF1-driven luciferase signal – cell-based, NIH3T3, luminescence, dose retest, confirmation (AID 435004); format: functional;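 note: stress induced by proteasome inhibitor MG132 added 30 min after compound; luciferase reporter driven by HSF1 response element in NIH3T3 cells; actives raise luminescence as potentiators of the MG132 stress response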
T1 sequence (P38532 whole entry): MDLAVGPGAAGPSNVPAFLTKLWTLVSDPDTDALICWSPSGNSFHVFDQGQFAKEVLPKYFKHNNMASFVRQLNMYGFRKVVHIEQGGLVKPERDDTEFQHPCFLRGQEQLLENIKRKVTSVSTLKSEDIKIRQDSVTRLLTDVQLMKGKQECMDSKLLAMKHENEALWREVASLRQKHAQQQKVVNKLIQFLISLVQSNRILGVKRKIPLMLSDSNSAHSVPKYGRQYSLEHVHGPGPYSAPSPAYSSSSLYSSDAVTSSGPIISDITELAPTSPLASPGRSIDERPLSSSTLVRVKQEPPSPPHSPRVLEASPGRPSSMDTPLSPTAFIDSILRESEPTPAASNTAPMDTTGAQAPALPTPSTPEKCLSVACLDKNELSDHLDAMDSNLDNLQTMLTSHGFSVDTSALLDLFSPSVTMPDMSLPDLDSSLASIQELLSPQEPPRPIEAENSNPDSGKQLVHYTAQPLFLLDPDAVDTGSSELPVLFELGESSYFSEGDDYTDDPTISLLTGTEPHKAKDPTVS

[6] = alpha-synuclein stem-loop luciferase translation blockers – H4 neuroglioma cells, luminescence, confirmation (AID 1988); format: functional, cell-based
[7] = Luminescence Cell-Based Dose Response HTS to Identify Inhibitors of 5'UTR Stem-Loop Driven Prion Protein mRNA Translation in H4 Neuroglioblastoma Cells. [Related pubchem assays: 1827 (Project Summary), 1813 (Primary HTS)]; format: functional
[8] = Luminescence Cell-Based Dose Retest to Confirm Inhibitors of Cancer Stem Cells. [Related pubchem assays (depositor defined):AID2717, AID2721]; format: functional; settings: Homo sapiens
Protein RecA = target: T2, Protein RecA (Mycobacterium tuberculosis, UniProt P9WHJ3); assay: Fluorescence Cell-Free Homogeneous Dose Retest to Identify Inhibitors of RecA-Intein Splicing Activity. [Related pubchem assays (depositor defined):AID2097, AID2223, AID489010, AID492950]; format: functional
T2 sequence (P9WHJ3 whole entry): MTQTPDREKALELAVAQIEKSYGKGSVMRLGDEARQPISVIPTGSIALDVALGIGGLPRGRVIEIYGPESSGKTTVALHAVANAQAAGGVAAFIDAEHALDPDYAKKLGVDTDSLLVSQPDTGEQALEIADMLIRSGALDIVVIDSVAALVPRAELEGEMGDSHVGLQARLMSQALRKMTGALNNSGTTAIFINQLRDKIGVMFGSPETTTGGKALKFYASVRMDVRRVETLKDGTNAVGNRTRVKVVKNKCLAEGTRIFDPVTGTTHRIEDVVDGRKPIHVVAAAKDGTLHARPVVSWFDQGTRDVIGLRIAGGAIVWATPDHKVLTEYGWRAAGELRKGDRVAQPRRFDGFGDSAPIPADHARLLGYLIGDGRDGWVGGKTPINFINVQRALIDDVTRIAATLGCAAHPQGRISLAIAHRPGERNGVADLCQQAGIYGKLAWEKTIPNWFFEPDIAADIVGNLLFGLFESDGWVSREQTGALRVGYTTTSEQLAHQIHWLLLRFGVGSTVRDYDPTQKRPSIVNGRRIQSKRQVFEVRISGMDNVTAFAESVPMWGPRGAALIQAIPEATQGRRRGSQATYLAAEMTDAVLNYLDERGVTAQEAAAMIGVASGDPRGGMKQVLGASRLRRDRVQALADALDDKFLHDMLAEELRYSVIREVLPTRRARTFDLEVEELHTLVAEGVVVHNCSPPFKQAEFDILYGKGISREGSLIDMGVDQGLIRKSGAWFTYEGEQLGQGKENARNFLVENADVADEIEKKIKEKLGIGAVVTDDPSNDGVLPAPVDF

[9] = target: T3, Replicative DNA helicase DnaB (Mycobacterium tuberculosis, UniProt P9WMR3); assay: DnaB intein splicing inhibitors, dose response, biochemical, cell-free fluorescence (AID 449749); format: functional
T3 sequence (P9WMR3 whole entry): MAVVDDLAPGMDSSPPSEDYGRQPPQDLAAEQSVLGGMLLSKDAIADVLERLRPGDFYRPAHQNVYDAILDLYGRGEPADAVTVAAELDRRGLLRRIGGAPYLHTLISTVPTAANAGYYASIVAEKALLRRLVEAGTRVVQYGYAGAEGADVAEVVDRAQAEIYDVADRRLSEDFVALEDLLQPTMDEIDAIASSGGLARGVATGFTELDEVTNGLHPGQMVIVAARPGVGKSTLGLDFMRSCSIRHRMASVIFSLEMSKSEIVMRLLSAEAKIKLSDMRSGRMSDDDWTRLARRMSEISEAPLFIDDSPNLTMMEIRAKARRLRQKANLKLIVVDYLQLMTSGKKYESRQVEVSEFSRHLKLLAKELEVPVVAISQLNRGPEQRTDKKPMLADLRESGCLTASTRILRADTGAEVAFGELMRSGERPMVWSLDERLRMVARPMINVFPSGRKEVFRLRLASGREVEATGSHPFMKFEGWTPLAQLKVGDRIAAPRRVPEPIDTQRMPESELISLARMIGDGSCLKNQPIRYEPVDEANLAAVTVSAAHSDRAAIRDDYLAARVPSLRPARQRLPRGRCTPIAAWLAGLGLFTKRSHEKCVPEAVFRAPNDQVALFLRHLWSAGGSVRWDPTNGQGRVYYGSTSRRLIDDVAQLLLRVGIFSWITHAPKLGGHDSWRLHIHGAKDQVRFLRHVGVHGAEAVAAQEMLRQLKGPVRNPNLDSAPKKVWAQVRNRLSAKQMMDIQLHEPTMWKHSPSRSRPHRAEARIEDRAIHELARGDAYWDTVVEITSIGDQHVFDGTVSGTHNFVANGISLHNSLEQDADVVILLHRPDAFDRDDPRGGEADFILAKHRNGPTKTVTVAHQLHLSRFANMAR

Cytochrome P450 1A2 = target: T4, Cytochrome P450 1A2 (Homo sapiens, UniProt P05177);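 note: PubChem cytochrome P450 panel assay, CYP1A2 panel member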
T4 sequence (P05177 whole entry): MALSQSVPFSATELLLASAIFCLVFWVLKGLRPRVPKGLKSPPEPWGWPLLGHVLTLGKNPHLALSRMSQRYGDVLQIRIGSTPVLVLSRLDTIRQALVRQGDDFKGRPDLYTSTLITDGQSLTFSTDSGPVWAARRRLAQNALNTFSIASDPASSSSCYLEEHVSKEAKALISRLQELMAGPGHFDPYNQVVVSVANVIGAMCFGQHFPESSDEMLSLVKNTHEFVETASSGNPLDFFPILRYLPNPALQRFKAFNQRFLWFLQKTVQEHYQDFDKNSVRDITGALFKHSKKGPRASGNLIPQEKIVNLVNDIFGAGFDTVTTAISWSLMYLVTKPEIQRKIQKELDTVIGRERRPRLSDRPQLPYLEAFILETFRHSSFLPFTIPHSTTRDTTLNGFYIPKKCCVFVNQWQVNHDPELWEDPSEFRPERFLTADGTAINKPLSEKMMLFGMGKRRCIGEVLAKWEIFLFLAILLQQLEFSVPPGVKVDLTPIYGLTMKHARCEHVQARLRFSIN

[10] = system: Streptococcus sp. 'group A'; assay: Streptococcus pyogenes SK(-)GAS viability under kanamycin – luminescence, BacTiterGlo, confirmation, counter-screen for streptokinase expression inhibitor project, dose response (AID 1900); format: functional, organism-based
Streptokinase A = target: T5, Streptokinase A (Streptococcus pyogenes serotype M1, UniProt P10520); assay: viability-normalized secreted streptokinase activity reduction – plasminogen activation absorbance, OD405, dose response (AID 1914); format: functional, Streptococcus pyogenes M1 GAS;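 note: secreted streptokinase activity via plasminogen activation per viability signal from cell pellet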
T5 sequence (P10520 whole entry): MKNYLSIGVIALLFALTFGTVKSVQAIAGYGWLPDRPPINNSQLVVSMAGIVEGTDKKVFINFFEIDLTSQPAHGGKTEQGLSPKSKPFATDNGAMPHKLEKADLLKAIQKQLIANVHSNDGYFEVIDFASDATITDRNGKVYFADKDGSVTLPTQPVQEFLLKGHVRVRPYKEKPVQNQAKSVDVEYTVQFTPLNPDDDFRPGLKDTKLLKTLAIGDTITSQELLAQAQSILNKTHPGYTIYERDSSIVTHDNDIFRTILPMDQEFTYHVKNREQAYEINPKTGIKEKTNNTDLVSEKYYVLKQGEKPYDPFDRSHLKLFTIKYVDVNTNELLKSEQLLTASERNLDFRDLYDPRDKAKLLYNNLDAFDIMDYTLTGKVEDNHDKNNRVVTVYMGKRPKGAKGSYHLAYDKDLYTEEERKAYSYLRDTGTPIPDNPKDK

Streptococcus = assay: GAS UMAA2166 growth inhibition – luminescence, BacTiterGlo, counter-screen for streptokinase expression inhibitor project, dose response (AID 1915); format: functional, organism-based;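 note: potency for reduction of bacterial viability or growth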
[11] = non-specific 3'UTR reporter inhibition in Clone20-Shn3RL – cell-based, Renilla luciferase, cherry-picked, counter-screen for Shn3 inhibitor project, dose response (AID 624133); format: functional
[12] = reduction of Shn3 3'UTR-driven luciferase in osteoblasts – cell-based, Clone20 osteoblasts, firefly luciferase, cherry-picked, dose response (AID 624132); format: functional;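 note: firefly luciferase luminescence from reporter carrying the Shn3 3'UTR in osteoblasts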

CN(CCCNC(=O)CCCOc1cc(=O)n(C)c2ccccc12)Cc1ccccc1
EC50 [1]: > 30 µM (not active) | EC50 [2]: > 38 µM (not active) | EC50 [3]: > 160 µM (inactive) | EC50 [4]: 0.46 µM (active)

Cc1ccc(C2CC(c3ccc(C)cc3)n3nc(N)nc3N2)cc1 (stereo not drawn)
AC50 (INS1): 28.7 µM (active)

COC(/C(=N/O)c1ccc(Cl)cc1)c1ccccc1 (stereo not drawn)
AC50 (INS1): 2.72 µM (active)

COc1cc2nc(S)nc(NCc3cccs3)c2cc1OC
EC50 [5]: > 260 µM (inactive)

CCOC(=O)C1CCCN(c2cc(C)nc3cc(-c4ccc(F)cc4)nn23)C1 (stereo not drawn)
EC50 [2]: > 38 µM (not active) | EC50 [3]: > 160 µM (inactive)

Cc1ccc(-n2nc3c(c2NC(=O)c2ccc4c(c2)OCO4)CSC3)c(C)c1
EC50 [5]: > 260 µM (inactive)

Cc1cccc(NC2=NC(=S)N(c3cccc(C(=O)O)c3)C23CCCCC3)c1
EC50 [2]: 2.12 µM (active) | EC50 [3]: 19.7 µM (inconclusive)

CCCCc1ccc(-c2ccc(C)cc2O)nc1
EC50 [6]: 4.33 µM (active) | EC50 [7]: 11.7 µM (inconclusive)

CN1CC(C(=O)c2ccc(F)cc2)C(c2c(F)cccc2Cl)C1 (stereo not drawn)
EC50 [5]: > 260 µM (inactive)

Cc1ccc(NC(=O)NCc2ccccn2)c(C)c1
EC50 [2]: 6.59 µM (active) | EC50 [3]: > 160 µM (inactive)

COc1ccc2nc(N=Nc3ccc(O)c4ccccc34)sc2c1
AC50 (INS1): 2.09 µM (active) | AC50 [8]: 1.73 µM (active)

O=C(CN1CCCc2ccccc21)N/N=C/c1ccccc1O
AC50 (INS1): 4.81 µM (active)

O=C(O)c1ccc(/C=C(\c2nc3ccccc3[nH]2)c2nc3ccccc3s2)cc1
EC50 (Protein RecA): 21 µM (active) | AC50 [9]: > 380 µM (inactive)

Cc1ccc2cccc(NC(=O)C(F)(F)F)c2n1
EC50 [5]: > 260 µM (inactive)

Cc1[nH]c2ccccc2c1CCNC(=O)c1ccc2c(c1[N+](=O)[O-])C(=O)c1ccccc1C2=O
EC50 (Protein RecA): 3.26 µM (active) | AC50 (Cytochrome P450 1A2): 4.47 µM (inconclusive) | AC50 [9]: 10.1 µM (active)

O=C1c2ccccc2C2=Nc3ccccc3SC(c3ccc(Cl)cc3)C12 (stereo not drawn)
EC50 [10]: 2.87 µM (active) | AC50 (INS1): 14.1 µM (active) | AC50 [8]: 5.23 µM (active) | EC50 (Streptokinase A): > 150 µM (not active) | EC50 (Streptococcus): 4.58 µM (active)

NC(=O)c1cc(N2C(=O)C=CC2=O)ccc1Cl
AC50 [11]: 25.5 µM (active) | AC50 [12]: 11.3 µM (active)

O=C(Nc1ccccc1O)c1ccccc1O
EC50 [2]: 6.43 µM (active) | EC50 [3]: > 150 µM (inactive)

O=C(N/N=C/c1ccc([N+](=O)[O-])o1)c1ccccc1NS(=O)(=O)c1cccs1
EC50 (Protein RecA): 125 µM (active) | AC50 [9]: > 380 µM (inactive)

O=C(O)c1ccc(-n2c(=O)c3ccccc3c3ccccc3c2=O)cc1
EC50 (Protein RecA): 70.7 µM (active) | AC50 [9]: 15.8 µM (active)

Cc1cc2nc(Sc3c([N+](=O)[O-])nc(C)n3Cc3ccccc3)[nH]c2cc1C
EC50 (Protein RecA): 7.56 µM (active) | AC50 [9]: 11.3 µM (active)

Cc1nc2cc3[nH]c(C(F)(F)F)nc3cc2[nH]1
EC50 [5]: > 260 µM (inactive)

C#CC[N+]1(CC#Cc2ccccc2)CCCCC1
EC50 [5]: > 260 µM (inactive)
